Assay results as given in patent US10533010B2, “Substituted indole Mcl-1 inhibitors” (Vanderbilt University, priority 2014, dated 2020).
Like-named read-outs stand apart in the source and are kept apart here.

Target: recombinant Mcl-1 (residues 172-327) (Homo sapiens (Human), UniProt Q07820)
Experiment: Fluorescence polarization anisotropy competition assay (FITC-Bak or FITC-Bim BH3 peptide) with Mcl-1
Format: binding
Settings: Table 2, FITC-Bak or FITC-Bim peptide competition, Ki converted from IC50, read-out: Ki for Inhibition of Mcl-1

recombinant Mcl-1 (residues 172-327), sequence (Q07820 172-327): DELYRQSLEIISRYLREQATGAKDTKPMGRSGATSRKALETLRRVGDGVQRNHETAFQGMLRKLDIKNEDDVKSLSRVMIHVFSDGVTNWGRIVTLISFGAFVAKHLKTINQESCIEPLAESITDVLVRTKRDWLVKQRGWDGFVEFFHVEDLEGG

SMILES | Ki (Ki bins given in nM) | Ki (Ki bins given in μM)
Cc1cc(OCCCc2c(C(=O)NCCS(=O)(=O)NC(=O)C34CC5CC(CC(C5)C3)C4)[nH]c3ccccc23)cc(C)c1Cl [I-55, N-(2-(N-((3r,5r,7r)-adamantane-1-carbonyl)sulfamoyl)ethyl)-3-(3-(4-chloro-3,5-dimethylphenoxy)propyl)-1H-indole-2-carboxamide] | 301 to 500 nM | 
Cc1cc(OCCCc2c(C(=O)N3CCC(NC(=O)c4cccc(Oc5ccccc5)c4)CC3)[nH]c3ccccc23)cc(C)c1Cl [I-259, N-(1-(3-(3-(4-chloro-3,5-dimethylphenoxy)propyl)-1H-indole-2-carbonyl)piperidin-4-yl)-3-phenoxybenzamide] |  | 1000 to 9990 nM
Cc1cc(OCCCc2c(C(=O)NCC(=O)NS(=O)(=O)c3ccccc3)[nH]c3ccccc23)cc(C)c1Cl [I-5, 3-(3-(4-chloro-3,5-dimethylphenoxy)propyl)-N-(2-oxo-2-(phenylsulfonamido)ethyl)-1H-indole-2-carboxamide] | 101 to 299 nM | 
Cc1cc(OCCCc2c3n(c4c(-c5c(C)nn(C)c5C)c(Cl)ccc24)CCCN(Cc2cc(NCCC(C)C)cc(C(=O)O)c2)C3=O)cc(C)c1Cl [I-328, 3-((8-chloro-11-(3-(4-chloro-3,5-dimethylphenoxy)propyl)-1-oxo-7-(1,3,5-trimethyl-1H-pyrazol-4-yl)-4,5-dihydro-1H-[1,4]diazepino[1,2-a]indol-2(3H)-yl)methyl)-5-(isopentylamino)benzoic acid] | < 50 nM | 
Cc1cc(OCCCc2c3n(c4c(-c5c(C)nn(C)c5C)c(Cl)ccc24)CC(C)CN(Cc2ccc(C(=O)O)o2)C3=O)cc(C)c1Cl (stereo not drawn) [I-132, 5-((8-chloro-1-(3-(4-chloro-3,5-dimethylphenoxy)propyl)-4-methyl-1-oxo-7-(1,3,5-trimethyl-1H-pyrazol-4-yl)-4,5-dihydro-1H-[1,4]diazepino[1,2-a]indol-2(3H)-yl)methyl)furan-2-carboxylic acid] | < 50 nM | 
Cc1cc(OCCCc2c(C(=O)N(C)Cc3cc(C(=O)O)c(C)o3)n(C)c3c(-c4c(C)nn(C)c4C)cccc23)cc(C)c1Cl [I-274, 5-((3-(3-(4-chloro-3,5-dimethylphenoxy)propyl)-N,1-dimethyl-7-(1,3,5-trimethyl-1H-pyrazol-4-yl)-1H-indole-2-carboxamido)methyl)-2-methylfuran-3-carboxylic acid] | 101 to 299 nM | 
Cc1cc(OCCCc2c3n(c4c(-c5c(C)nn(C)c5C)c(Cl)ccc24)CCC(C)N(Cc2ccc(C(=O)O)cc2)C3=O)cc(C)c1Cl (stereo not drawn) [I-127, 4-((8-chloro-11-(3-(4-chloro-3,5-dimethylphenoxy)propyl)-3-methyl-1-oxo-7-(1,3,5-trimethyl-1H-pyrazol-4-yl)-4,5-dihydro-1H-[1,4]diazepino[1,2-a]indol-2(3H)-yl)methyl)benzoic acid] | < 50 nM | 
Cc1cc(OCCCc2c3n(c4c(-c5c(C)nn(C)c5C)c(Cl)ccc24)[C@H](C)CN(Cc2cccc(C(=O)O)c2)C3=O)cc(C)c1Cl [I-155, (R)-3-((7-chloro-10-(3-(4-chloro-3,5-dimethylphenoxy)propyl)-4-methyl-1-oxo-6-(1,3,5-trimethyl-1H-pyrazol-4-yl)-3,4-dihydropyrazino[1,2-a]indol-2(1H)-yl)methyl)benzoic acid] | < 50 nM | 
Cc1cc(OCCCc2c(C(=O)NCc3cc(C(=O)NC4Cc5ccccc5C4)cc(NC4Cc5ccccc5C4)n3)[nH]c3c(-c4c(C)nn(C)c4C)cccc23)cc(C)c1Cl [I-278, 3-(3-(4-chloro-3,5-dimethylphenoxy)propyl)-N-((6-((2,3-dihydro-1H-inden-2-yl)amino)-4-((2,3-dihydro-1H-inden-2-yl)carbamoyl)pyridin-2-yl)methyl)-7-(1,3,5-trimethyl-1H-pyrazol-4-yl)-1H-indole-2-carboxamide] |  | 1000 to 9990 nM
Cc1cc(OCCCc2c(C(=O)NCc3cc(C(=O)O)cc(NCCC(C)C)n3)[nH]c3c(-c4c(C)nn(C)c4C)c(Cl)ccc23)cc(C)c1Cl [I-283, 2-((6-chloro-3-(3-(4-chloro-3,5-dimethylphenoxy)propyl)-7-(1,3,5-trimethyl-1H-pyrazol-4-yl)-1H-indole-2-carboxamido)methyl)-6-(isopentylamino)isonicotinic acid] | < 50 nM | 
Cc1cc(OCCCc2c(C(=O)NCCC(=O)NS(=O)(=O)c3cccnc3)[nH]c3ccccc23)cc(C)c1Cl [I-15, 3-(3-(4-chloro-3,5-dimethylphenoxy)propyl)-N-(3-oxo-3-(pyridine-3-sulfonamido)propyl)-1H-indole-2-carboxamide] | 101 to 299 nM | 
Cc1cc(OCCCc2c3n(c4c(-c5c(C)nn(C)c5C)c(Cl)ccc24)CCCN(c2cccc(C(=O)O)c2C)C3=O)cc(C)c1Cl [I-96, 3-(8-chloro-11-(3-(4-chloro-3,5-dimethylphenoxy)propyl)-1-oxo-7-(1,3,5-trimethyl-1H-pyrazol-4-yl)-4,5-dihydro-1H-[1,4]diazepino[1,2-a]indol-2(3H)-yl)-2-methylbenzoic acid] | < 50 nM | 
Cc1cc(OCCCc2c3n(c4c(-c5c(C)nn(C)c5C)c(Cl)ccc24)C[C@@H](C)NC3=O)cc(C)c1Cl [I-109, (R)-7-chloro-10-(3-(4-chloro-3,5-dimethylphenoxy)propyl)-3-methyl-6-(1,3,5-trimethyl-1H-pyrazol-4-yl)-3,4-dihydropyrazino[1,2-a]indol-1(2H)-one] | < 50 nM | 

Second part, led by results:

Ki (Ki bins given in nM) | SMILES | Ki (Ki bins given in μM)
< 50 nM | Cc1cc(OCCCc2c3n(c4c(-c5c(C)nn(C)c5C)c(Cl)ccc24)CCN(c2cc(C(=O)O)cc4c2ccn4C)C3=O)cc(C)c1Cl [I-163, 4-(7-cholro-10-(3-(4-chloro-3,5-dimethylphenoxy)propyl)-1-oxo-6-(1,3,5-trimethyl-1H-pyrazol-4-yl)-3,4-dihydropyrazino[1,2-a]indol-2(1H)-yl)-1-methyl-1H-indole-6-carboxylic acid] | 
< 50 nM | Cc1cc(OCCCc2c(C(=O)NC3CCN(C(=O)C(=O)O)CC3)[nH]c3c(-c4c(C)nn(C)c4C)c(Cl)ccc23)cc(C)c1Cl [I-321, 2-(4-(6-chloro-3-(3-(4-chloro-3,5-dimethylphenoxy)propyl)-7-(1,3,5-trimethyl-1H-pyrazol-4-yl)-1H-indole-2-carboxamido)piperidin-1-yl)-2-oxoacetic acid] | 
< 50 nM | Cc1cc(OCCCc2c3n(c4c(-c5c(C)nn(C)c5C)c(Cl)ccc24)CCN(c2cncc(C(=O)O)c2)C3=O)cc(C)c1Cl [I-198, 5-(7-chloro-10-(3-(4-chloro-3,5-dimethylphenoxy)propyl)-1-oxo-6-(1,3,5-trimethyl-1H-pyrazol-4-yl)-3,4-dihydropyrazino[1,2-a]indol-2(1H)-yl)nicotinic acid] | 
< 50 nM | Cc1cc(OCCCc2c3n(c4c(-c5c(C)nn(C)c5C)c(Cl)ccc24)[C@@H](C)CN(Cc2ccc(C(=O)O)cc2)C3=O)cc(C)c1Cl [I-150, (S)-4-((7-chloro-10-(3-(4-chloro-3,5-dimethylphenoxy)propyl)-4-methyl-1-oxo-6-(1,3,5-trimethyl-1H-pyrazol-4-yl)-3,4-dihydropyrazino[1,2-a]indol-2(1H)-yl)methyl)benzoic acid] | 
< 50 nM | Cc1cc(OCCCc2c(C(=O)NCc3cc(C(=O)O)c(C)o3)[nH]c3c(-c4c(C)nn(C)c4C)cccc23)cc(C)c1Cl [I-273, 5-((3-(3-(4-chloro-3,5-dimethylphenoxy)propyl)-7-(1,3,5-trimethyl-1H-pyrazol-4-yl)-1H-indole-2-carboxamido)methyl)-2-methylfuran-3-carboxylic acid] | 
< 50 nM | Cc1cc(OCCCc2c3n(c4c(-c5c(C)nn(C)c5C)c(Cl)ccc24)[C@@H](C)CN(c2ccc(C(=O)O)c4ncccc24)C3=O)cc(C)c1Cl [I-168, (S)-5-(7-chloro-10-(3-(4-chloro-3,5-dimethylphenoxy)propyl)-4-methyl-1-oxo-6-(1,3,5-trimethyl-1H-pyrazol-4-yl)-3,4-dihydropyrazino[1,2-a]indol-2(1H)-yl)quinoline-8-carboxylic acid] | 
< 50 nM | Cc1cc(OCCCc2c3n(c4c(-c5c(C)nn(C)c5C)c(Cl)ccc24)[C@@H](C)CN(c2cc(C(=O)O)c4ccn(C)c4c2)C3=O)cc(C)c1Cl [I-169, (S)-6-(7-chloro-10-(3-(4-chloro-3,5-dimethylphenoxy)propyl)-4-methyl-1-oxo-6-(1,3,5-trimethyl-1H-pyrazol-4-yl)-3,4-dihydropyrazino[1,2-a]indol-2(1H)-yl)-1-methyl-1H-indole-4-carboxylic acid] | 
< 50 nM | Cc1cc(OCCCc2c3n(c4c(-c5c(C)nn(C)c5C)c(Cl)ccc24)CCN(c2cc(C(=O)O)cc(N4CCOCC4)c2)C3=O)cc(C)c1Cl [I-213, 3-(7-chloro-10-(3-(4-chloro-3,5-dimethylphenoxy)propyl)-1-oxo-6-(1,3,5-trimethyl-1H-pyrazol-4-yl)-3,4-dihydropyrazino[1,2-a]indol-2(1H)-yl)-5-morpholinobenzoic acid] | 
< 50 nM | Cc1cc(OCCCc2c(C(=O)N[C@H]3CCN(C(=O)C(=O)O)C3)[nH]c3c(-c4c(C)nn(C)c4C)c(Cl)ccc23)cc(C)c1Cl [I-325, (S)-2-(3-(6-chloro-3-(3-(4-chloro-3,5-dimethylphenoxy)propyl)-7-(1,3,5-trimethyl-1H-pyrazol-4-yl)-1H-indole-2-carboxamido)pyrrolidin-1-yl)-2-oxoacetic acid] | 
< 50 nM | Cc1cc(OCCCc2c3n(c4c(-c5c(C)nn(C)c5C)c(Cl)ccc24)CC(C)CN(Cc2ccc(C(=O)O)cn2)C3=O)cc(C)c1Cl (stereo not drawn) [I-134, 6-((8-chloro-11-(3-(4-chloro-3,5-dimethylphenoxy)propyl)-4-methyl-1-oxo-7-(1,3,5-trimethyl-1H-pyrazol-4-yl)-4,5-dihydro-1H-[1,4]diazepino[1,2-a]indol-2(3H)-yl)methyl)nicotinic acid] | 
< 50 nM | Cc1cc(OCCCc2c(C(=O)NC3CCN(C(=O)CC(=O)O)CC3)[nH]c3c(-c4c(C)nn(C)c4C)cccc23)cc(C)c1Cl [I-318, 3-(4-(3-(3-(4-chloro-3,5-dimethylphenoxy)propyl)-7-(1,3,5-trimethyl-1H-pyrazol-4-yl)-1H-indole-2-carboxamido)piperidin-1-yl)-3-oxopropanoic acid] | 
